# Tested on: PLCγ1^S345F
# Assay: PLC activity assay 1 (A1), PLCγ1 S345F variant
# Format: biochemical, human
# Description: The effect of nucleotide inhibition on PLC activity was measured using either a membrane-based assay with the fluorescent substrate (XY-69) incorporated into liposomes or using a small soluble substrate, Aldol 518 myo-inositol-1-phosphate (Aldol). Both methods utilised the same PLC assay buffer [20 mM Hepes-KOH, 70 mM KCl, 3 mM EGTA, 2.97 mM CaCl2, 2 mM TCEP and fatty acid-free bovine serum albumin (FAF-BSA; 50 μg/ml) (pH 7.5)]. Both assays were performed in low volume black 384-well plates (Greiner Bio-One), were composed of a final assay volume of 20 μl and were monitored in a Clariostar plate reader (BMG Labtech). […] The excitation and emission wavelengths were 588–15 and 642–20, respectively.
# A CLARIOstar plate reader (BMG Labtech) was used to measure the production of the fluorescent product. The excitation and emission wavelengths were 485–15 and 520–20, respectively. Each experiment was performed in at least triplicate; in many cases, nine-fold replicates were generated. The enzyme progress curves were plotted for each concentration of nucleotide using Graphpad Prism software. The initial linear rate of product generation was calculated and converted to a % inhibition when compared with the rate of PLC activity in the absence of nucleotide. […]
structure (smiles),measurement,value
Nc1ncnc2c1ncn2[C@@H]1O[C@H](COP(=O)(O)OP(=O)(O)O)[C@@H](O)[C@H]1O [ADP],IC50 relative to PLCγ1^wt (fold higher),5–7 fold

# Source: publication PMC12687421, “Characterisation of an allosteric site in PLCγ enzymes and implications for development of their specific inhibitors” (Biochemical Journal, 2025)
